Results as given in patent US9839618B2, “Compositions and methods relating to proliferative diseases” (The Penn State Research Foundation, priority 2010, dated 2017).
Like-named read-outs stand apart in the source and are kept apart here.

Tests used:
[1] = test system: FF2441 normal human fibroblasts; assay: MTS assay viability IC50, normal fibroblasts; type: cell-based; conditions: Homo sapiens, FF2441; Table 5; read-out: IC50 Fibroblast FF2441
Experimental: (§1) The efficacy of leelamine to kill other cancer types is measured and the IC50 for cell lines derived from carcinomas of breast, lung, prostate, connective tissue, pancreas and colon determined. The MTS assay as described in Sharma, A. et al., Clin Cancer Res, 2009, 15:1674-85; and Madhunapantula, S. V. et al., Mol Cancer Ther, 2008, 7:1297-308 is used to establish the IC50 at 24, 48 and 72 hours of leelamine treatment for normal human epidermal melanocytes (FOM103), normal skin fibroblast cells (FF2441), normal skin keratinocytes (HFK) and compared to melanocytic lesion cells from the radial-, vertical- and metastatic melanoma stages. 5×10^3 cells per well in 100 μL of media are plated and grown in a 96-well plate for 48 to 72 hours and treated with either DMSO vehicle control or 0.62 to 40 μmol/L of leelamine for 24, 48 or 72 hours. IC50 values for each compound in μmol/L for respective cell lines are measured from three independent experiments using GraphPad Prism version 4.01 (GraphPad Software, La Jolla, Calif.). Leelamine is found to be not toxic to normal cells and effective to kill melanoma cells as well as non-melanoma cancer cells as shown in Table 1 in FIG. 20. Leelamine is 3- to 4-fold more specific at killing metastatic melanoma than normal cells, supporting cancer therapeutic utility at concentrations<2 μmol/L.
5×10^3 cells per well in 100 μL of media are plated and grown in a 96-well plate for 48 to 72 hours and treated with either DMSO vehicle control or 0.62 to 40 μmol/L of leelamine for 24, 48 or 72 hours. IC50 values for each compound in μmol/L for respective cell lines are measured from three independent experiments using GraphPad Prism version 4.01 (GraphPad Software, La Jolla, Calif.). […]
(§2) Dehydroabietylamine, its N-substituted derivatives and the corresponding dihydroabietylamine and its N-substituted derivatives are tested for their capability to inhibit cell growth of cancer cell lines, including melanoma (UACC 903, 1205Lu), breast (MCF-7), fibrosarcoma (HT-1080), colon (Caco-2), and prostate (PC-3) cancer cell lines. Viability and IC50 of normal human fibroblasts and cell lines from melanoma and other malignancies following treatment with all the agents are measured using the MTS assay (Promega, Madison, Wis.). Human fibroblast FF2441 cells, metastatic melanoma cell lines 1205 Lu and UACC 903 as well as cancer cell lines representing sarcoma (HT-1080), prostate (PC-3, LNCaP), breast (MCF-7) and lung (A-549) are maintained in DMEM (Invitrogen, Carlsbad, Calif.) supplemented with 10% FBS (Hyclone, Logan, Utah) in a 5% CO2 atmosphere, humidified 37° C. incubator. 5×10^3 cells per well in 100 μL of media are plated and grown in a 96-well plate for 48 to 72 h and treated with either DMSO vehicle control or 0.62 to 40 μmol/L for 24, 48 or 72 h. IC50 values for each compound in […] for respective cell lines are measured from three independent experiments using GraphPad Prism version 4.01 (GraphPad Software, La Jolla, Calif.). FIG. 52 is a graph showing IC50 values for leelamine and compounds 4a, 4b and 5a in treated fibroblasts (FF2441) compared to melanoma cells. Selectivity ratio here is defined as ratio of activity against fibroblasts compared to activity against melanoma cells. Leelamine is relatively selective with a ratio of >6 and >4 for UACC903 and 1205Lu melanoma cells. The selectivity ratio of compound 4a is ˜4 and ˜3 for UACC903 and 1205Lu and for compound 4b is ˜4 for both cell lines. The selectivity ratio of compound 5a is ˜4 for UACC903 and >2 for 1205Lu cells.

[2] = test system: UACC 903 metastatic melanoma cells; assay: MTS assay viability IC50, UACC 903; type: cell-based, human; conditions: for IC50: Homo sapiens, UACC-903
Experimental: as §1
(§3) 5×10^3 cells per well in 100 μL of media are plated and grown in a 96-well plate for 48 to 72 hours and treated with either DMSO vehicle control or 0.62 to 40 μmol/L of leelamine for 24, 48 or 72 hours. IC50 values for each compound in μmol/L for respective cell lines are measured from three independent experiments using GraphPad Prism version 4.01 (GraphPad Software, La Jolla, Calif.).
(§4) The IC50 and effect of liposomal preparations of leelamine on viability of normal human melanocytes, fibroblasts and melanoma cells UACC 903 and 1205 Lu are measured using the MTS assay (Promega, Madison, Wis.). Empty liposomes or liposomes containing abietic acid are used as controls. 5×10^3 cells per well in 100 μL of media are plated and grown in a 96-well plate for 48 or 72 hours for melanoma and normal cell lines, respectively. The cells are then treated with 0.62 to 40 μmol/L of liposome alone, a liposomal preparation of abietic acid, or with Nanolipolee-007 for 24 hours. IC50 values for each liposome in μmol/L for respective cell lines are measured from three independent experiments using GraphPad Prism version 4.01 (GraphPad Software, La Jolla, Calif.). Nanolipolee-007 retains the growth inhibitory activity of leelamine in killing melanoma cells in culture and specifically kills melanoma cells compared to normal cells, FIG. 24.
as §2, with “FIG. 52 is a graph showing IC50 values for leelamine and compounds 4a, 4b and 5a in treated fibroblasts (FF2441) compared to melanoma cells. Selectivity ratio here is defined as ratio of activity against fibroblasts compared to activity against melanoma cells. Leelamine is relatively selective with a ratio of >6 and >4 for UACC903 and 1205Lu melanoma cells. The selectivity ratio of compound 4a is ˜4 and ˜3 for UACC903 and 1205Lu and for compound 4b is ˜4 for both cell lines. The selectivity ratio of compound 5a is ˜4 for UACC903 and >2 for 1205Lu cells.” left out

[3] = test system: 1205 Lu metastatic melanoma cells; assay: MTS assay viability IC50, 1205 Lu; type: cell-based, human; conditions: for IC50: Homo sapiens, 1205Lu
Experimental: as §1, §3, §4
as §2, with “FIG. 52 is a graph showing IC50 values for leelamine and compounds 4a, 4b and 5a in treated fibroblasts (FF2441) compared to melanoma cells. Selectivity ratio here is defined as ratio of activity against fibroblasts compared to activity against melanoma cells. Leelamine is relatively selective with a ratio of >6 and >4 for UACC903 and 1205Lu melanoma cells. The selectivity ratio of compound 4a is ˜4 and ˜3 for UACC903 and 1205Lu and for compound 4b is ˜4 for both cell lines. The selectivity ratio of compound 5a is ˜4 for UACC903 and >2 for 1205Lu cells.” left out

[4] = test system: Breast (MCF-7) cancer cell line; assay: MTS assay viability IC50, MCF-7; type: cell-based; conditions: Homo sapiens, MCF7; Table 5
Experimental: as §2

[5] = test system: Prostate (PC-3) cancer cell line; assay: MTS assay viability IC50, PC-3; type: cell-based; conditions: Table 5
Experimental: as §2

[6] = test system: Prostate (LnCap) cancer cell line; assay: MTS assay viability IC50, LnCap; type: cell-based; conditions: Homo sapiens, Table 5
Experimental: as §2

[7] = test system: Fibrosarcoma (HT-1080) cancer cell line; assay: MTS assay viability IC50, HT-1080; type: cell-based; conditions: Homo sapiens, Table 5, read-out: IC50 Fibro Sarcoma (HT-1080)
Experimental: as §2

cancer cell line = assay: MTS assay viability IC50, A-459; type: cell-based; conditions: A459; Table 5; read-out: IC50 Liver (A-459)
Experimental: as §2

[8] = activity against fibroblasts FF2441 compared to melanoma cells

- IC50 ([2]; Example 8, read-out: IC50 UACC 903): 2360 nM
- IC50 ([2]; Table 4, read-out: IC50 Metastatic Melanoma Cell line UACC903): 2360 ± 250 nM
- IC50 ([2]; Table 5, read-out: IC50 Melanoma (UACC903)): 2360 ± 250 nM
- IC50 ([2]; Table 6, read-out: IC50 Metastatic melanoma UACC 903): 2360 ± 250 nM
- IC50 ([2]; Table 7, read-out: IC50 (UACC903)): 2360 nM
- IC50 ([3]; Example 8, read-out: IC50 1205Lu): 2380 nM
- IC50 ([3]; Table 4, read-out: IC50 Metastatic Melanoma Cell line 1205Lu): 2380 ± 140 nM
- IC50 ([3]; Table 6, read-out: IC50 Metastatic melanoma 1205 Lu): 2380 ± 140 nM
- IC50 [4]: 9040 ± 2430 nM
- IC50 [5]: 10700 ± 870 nM
- IC50 [6]: 22400 ± 3310 nM
- IC50 [7]: 4540 ± 870 nM
- IC50 (cancer cell line): 15300 ± 1830 nM
SMILES: CNC[C@]1(C)CCC[C@]2(C)C3CCC(C(C)C)=CC3=CCC12 (stereo partly drawn) [Compound 4b, {[(1R,4aR)-1,4a-dimethyl-7-(propan-2-yl)-1,2,3,4,4a,4b,5,6,10,10a-decahydrophenanthren-1-yl]methyl}(methyl)amine]
- IC50 [1]: 9330 ± 1270 nM
- Selectivity ratio, fibroblasts versus UACC903 [2, 8]: ~4
- Selectivity ratio, fibroblasts versus 1205Lu [3, 8]: ~4
